The values below come from US7405240B2, “Substituted cyclopentanes or cyclopentanones as therapeutic agents” (Allergan, Inc., priority 2006, dated 2008).

Experiment [1] addresses T1, hEP4 (Homo sapiens, UniProt P35408). As to the kind of experiment: Radioligand binding, EP4 receptor. More on the design: expressed in transfected cells; host or cells: HEK-293. The note with it: [3H]PGE2, HEK-293 cells expressing EP4. The protocol: (§1) HEK-293 cells stably expressing the human or feline FP receptor, or EP1, EP2, or EP4 receptors were washed with TME buffer, scraped from the bottom of the flasks, and homogenized for 30 sec using a Brinkman PT 10/35 polytron. TME buffer was added to achieve a final 40 ml volume in the centrifuge tubes (the composition of TME is 100 mM TRIS base, 20 mM MgCl2, […]; 10N HCl is added to achieve a pH of 7.4).
(§2) The cell homogenate was centrifuged at 19000 r.p.m. for 20 min at 4° C. using a Beckman Ti-60 rotor. The resultant pellet was resuspended in TME buffer to give a final 1 mg/ml protein concentration, as determined by Biorad assay. Radioligand binding competition assays vs. [3H-] 17-phenyl PGF2, (5 nM) were performed in a 100 μl volume for 60 min. Binding reactions were started by adding plasma membrane fraction. The reaction was terminated by the addition of 4 ml ice-cold TRIS-HCl buffer and rapid filtration through glass fiber GF/B filters using a Brandel cell harvester. The filters were washed 3 times with ice-cold buffer and oven dried for one hour.
(§3) [^3H-] PGE2 (specific activity 180 Ci mmol) was used as the radioligand for EP receptors. [^3H] 17-phenyl PGF2, was employed for FP receptor binding studies. Binding studies employing EP1, EP2, EP4 and FP receptors were performed in duplicate in at least three separate experiments. A […] assay volume was used. Incubations were for 60 min at 25° C. and were terminated by the addition of 4 ml of ice-cold 50 mM TRIS-HCl, followed by rapid filtration through Whatman GF/B filters and three additional 4 ml washes in a cell harvester (Brandel). Competition studies were performed using a final concentration of 5 nM [^3H]-PGE2, or 5 nM [^3H] 17-phenyl PGF2, and non-specific binding determined with 10^−5M of unlabeled PGE2, or 17-phenyl PGF2α, according to receptor subtype studied.

In experiment [2] the target is T2, hEP2 (Homo sapiens, UniProt P43116). The experiment in a line: FLIPR calcium signal, hEP2. The class given is cell-based. More on the design: expressed in transfected cells; host or cells: HEK-293(EBNA). The settings on record: HEK-293(EBNA) cells expressing hEP2/Gqs5. The protocol: (§4) Methods for FLIPR™ Studies
(§5) HEK-293(EBNA) cells, stably expressing one type or subtype of recombinant human prostaglandin receptors (prostaglandin receptors expressed: hDP/Gqs5; hEP1; hEP2/Gqs5; hEP3A/Gqi5; hEP4/Gqs5; hFP; hIP; hTP), were cultured in 100 mm culture dishes in high-glucose DMEM medium containing 10% fetal bovine serum, 2 mM 1-glutamine, 250 μg/ml geneticin (G418) and 200 μg/ml hygromycin B as selection markers, and 100 units/ml penicillin G, 100 μg/ml streptomycin and 0.25 μg/ml amphotericin B.
(§6) Cells were seeded at a density of 5×10^4 cells per well in Biocoat® Poly-D-lysine-coated black-wall, clear-bottom 96-well plates (Becton-Dickinson) and allowed to attach overnight in an incubator at 37° C. Cells were then washed two times with HBSS-HEPES buffer (Hanks Balanced Salt Solution without bicarbonate and phenol red, 20 mM HEPES, pH 7.4) using a Denley Cellwash plate washer (Labsystems). After 45 minutes of dye-loading in the dark, using the calcium-sensitive dye Fluo-4 AM at a final concentration of 2 μM, plates were washed four times with HBSS-HEPES buffer to remove excess dye leaving 100 μl in each well. Plates were re-equilibrated to 37° C. for a few minutes.
(§7) Cells were excited with an Argon laser at 488 nm, and emission was measured through a 510-570 nm bandwidth emission filter (FLIPR™, Molecular Devices, Sunnyvale, Calif.). Drug solution was added in a 50 μl volume to each well to give the desired final concentration. The peak increase in fluorescence intensity was recorded for each well. On each plate, four wells each served as negative (HBSS-HEPES buffer) and positive controls (standard agonists: BW245C (hDP); PGE2 (hEP1; hEP2/Gqs5; hEP3A/Gqi5; hEP4/Gqs5); PGF2α (hFP); carbacyclin (hIP); U-46619 (hTP), depending on receptor). The peak fluorescence change in each drug-containing well was then expressed relative to the controls.
(§8) Compounds were tested in a high-throughput (HTS) or concentration-response (CoRe) format. In the HTS format, forty-four compounds per plate were examined in duplicates at a concentration of 10^−5 M. To generate concentration-response curves, four compounds per plate were tested in duplicates in a concentration range between 10^−5 and 10^−11 M. The duplicate values were averaged. In either, HTS or CoRe format each compound was tested on at least 3 separate plates using cells from different passages to give an n≧3.

The target of experiment [3] is T2, hEP2. The experiment in a line: Competition binding, [3H]PGE2, human EP2 receptors. The arrangement: expressed in transfected cells; host or cells: HEK 293. The settings on record: [3H]PGE2, HEK 293 cells stably expressing human EP2; read-out: hEP2 Ki. The protocol:
Competition binding experiments were performed in a medium containing Hank's balanced salt solution, Hepes 20 mM, pH 7.3, membranes (˜60 μg protein) or 2×10^5 cells from HEK 293 cells stably expressing human EP2 receptors, [^3H]PGE2 (10 nM) and various concentrations of test compounds in a total volume of 300 μl. Reaction mixtures were incubated at 23° C. for 60 min, and were filtered over Whatman GF/B filters under vacuum. Filters were washed three times with 5 ml ice-cold buffer containing 50 mM Tris/HCl (pH 7.3). Non-specific binding was estimated in the presence of excess unlabeled PGE2 (10 μM). Binding data fitted to the binding model for a single class of binding sites, using nonlinear regression analysis. IC50 values thus obtained were converted to Ki using the equation of Ki=(IC50/(1+[L]/KD) where [L] represents PGE2 concentration (10 nM) and KD the dissociation constant for [^3H]PGE2 at human EP2 receptors (40 nM).
as §1, §2, §3

Experiment [4] deals with T2, hEP2. The experiment in a line: cAMP assay, hEP2. It counts as cell-based. (In general: Changes in cAMP serve as a functional read-out for many G protein-coupled receptors.)
In experiment [5] the target is T1, hEP4. As to the kind of experiment: FLIPR calcium signal, hEP4. The class given is cell-based. The arrangement: expressed in transfected cells; host or cells: HEK-293(EBNA). The note with it: HEK-293(EBNA) cells expressing hEP4/Gqs5. The protocol: as §4, §5, §6, §7, §8

T2 sequence (P43116 whole entry): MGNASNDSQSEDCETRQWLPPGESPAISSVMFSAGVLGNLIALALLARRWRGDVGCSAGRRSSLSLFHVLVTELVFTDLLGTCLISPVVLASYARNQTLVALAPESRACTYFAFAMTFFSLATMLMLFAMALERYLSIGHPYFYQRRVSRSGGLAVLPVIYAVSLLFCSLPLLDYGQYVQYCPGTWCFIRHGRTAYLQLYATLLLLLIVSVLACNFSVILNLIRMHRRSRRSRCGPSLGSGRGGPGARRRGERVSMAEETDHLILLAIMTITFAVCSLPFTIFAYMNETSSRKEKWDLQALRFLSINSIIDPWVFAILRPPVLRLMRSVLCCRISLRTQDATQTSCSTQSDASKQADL
T1 sequence (P35408 whole entry): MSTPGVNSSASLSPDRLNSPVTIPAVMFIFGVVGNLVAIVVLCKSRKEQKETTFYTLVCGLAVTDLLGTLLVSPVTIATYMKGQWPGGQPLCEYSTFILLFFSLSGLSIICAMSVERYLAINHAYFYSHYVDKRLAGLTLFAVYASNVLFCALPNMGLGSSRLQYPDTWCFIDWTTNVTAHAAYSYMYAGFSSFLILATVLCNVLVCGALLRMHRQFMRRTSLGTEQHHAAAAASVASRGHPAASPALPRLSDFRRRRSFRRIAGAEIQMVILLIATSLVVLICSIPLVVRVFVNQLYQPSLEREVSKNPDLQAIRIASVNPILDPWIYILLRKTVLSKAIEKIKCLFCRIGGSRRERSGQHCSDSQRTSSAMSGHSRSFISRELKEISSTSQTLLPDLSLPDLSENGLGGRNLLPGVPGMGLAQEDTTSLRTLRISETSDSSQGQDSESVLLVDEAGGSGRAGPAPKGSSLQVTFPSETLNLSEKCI

Consider `CC(=O)OCc1cc(Cl)cc(OC[C@@H]2[C@@H](C/C=C\CCCC(=O)O)[C@H](Cl)C[C@H]2O)c1` [Example 64, (Z)-7-[(1R,2S,3R,5R)-2-(3-Acetoxymethyl-5-chloro-phenoxymethyl)-5-chloro-3-hydroxy-cyclopentyl]-hept-5-enoic acid], for which the Ki (commonly a dissociation constant, usually derived from enzyme kinetics or from competition with a known ligand) amounted to 381 nM on hEP4 [1] and 65 nM on hEP2 [3]. The figures for the EC50 at hEP2 [2], on hEP2 [4] and at hEP4 [5] were 1110 nM, 6.5 nM and 7450 nM, respectively.
`Cc1ccc(OC[C@@H]2[C@@H](C/C=C\CCCC(=O)O)[C@H](Cl)C[C@H]2O)cc1C` [Example 37, (Z)-7-[(1R,2S,3R,5R)-5-Chloro-2-(3,4-dimethyl-phenoxymethyl)-3-hydroxy-cyclopentyl]-hept-5-enoic acid]: the Ki came to 1100 nM at hEP4 [1] and 50 nM at hEP2 [3]. In addition, the values for the EC50 on hEP2 [2], on hEP2 [4] and on hEP4 [5] were 618 nM, 27 nM and above 10000 nM, respectively.
The matching figures for `COc1cccc(OC[C@@H]2[C@@H](C/C=C\CCCC(=O)O)[C@H](Cl)C[C@H]2O)c1` [Example 28, (Z)-7-[(1R,2S,3R,5R)-5-Chloro-3-hydroxy-2-(3-methoxy-phenoxymethyl)-cyclopentyl]-hept-5-enoic acid]: 1680 nM, 274 nM, 245 nM, 20 nM and 3720 nM.
Turning to `Cc1ccc(C)c(OC[C@@H]2[C@@H](C/C=C\CCCC(=O)O)[C@H](Cl)C[C@H]2O)c1` [Example 34, (Z)-7-[(1R,2S,3R,5R)-5-Chloro-2-(2,5-dimethyl-phenoxymethyl)-3-hydroxy-cyclopentyl]-hept-5-enoic acid], the Ki was found to be 1100 nM on hEP4 [1] and 172 nM on hEP2 [3]. In addition, the values for the EC50 on hEP2 [2], at hEP2 [4] and at hEP4 [5] were 51 nM, 2.4 nM and above 10000 nM, respectively.
The matching figures for `O=C(O)CCCCCC[C@@H]1[C@@H](COc2ccc3ccccc3c2)[C@H](O)C[C@H]1Cl` [Example 18, (Z)-7-[(1R,2S,3R,5R)-5-Chloro-3-hydroxy-2-(naphthalen-2-yloxymethyl)-cyclopentyl]-heptanoic acid]: 973 nM, 89 nM, 453 nM, 65 nM and 6310 nM.
Regarding `O=C(O)CCC/C=C\C[C@@H]1[C@@H](COc2cccc(OC(=O)c3ccccc3)c2)[C@H](O)C[C@H]1Cl` [Example 29, 3-[(1S,2R,3R,5R)-2-((Z)-6-carboxy-hex-2-enyl)-3-chloro-5-hydroxy-cyclopentylmethoxy]-phenyl benzoate], the Ki is 2380 nM on hEP4 [1] and 568 nM at hEP2 [3]. Further, the 50% effective concentration (EC50) (commonly the concentration that produces a half-maximal response) on hEP2 [2] was 1580 nM; on hEP2 [4] it was 139 nM; at hEP4 [5], 7680 nM.
Turning to `O=C(O)CCCCCC[C@@H]1[C@@H](COc2cc(C(F)(F)F)cc(C(F)(F)F)c2)[C@H](O)C[C@H]1Cl` [Example 16, (Z)-7-[(1R,2S,3R,5R)-2-(3,5-Bis-trifluoromethyl-phenoxymethyl)-5-chloro-3-hydroxy-cyclopentyl]-heptanoic acid], the Ki on hEP4 [1] came out at 4110 nM; on hEP2 [3] it was 45 nM. In addition, the 50% effective concentration (EC50) at hEP2 [2] worked out at 100 nM; on hEP2 [4], 40 nM; on hEP4 [5], 13100 nM.
The matching figures for `O=C(O)CCC/C=C\C[C@@H]1[C@@H](COc2ccc(Cl)cc2)[C@H](O)C[C@H]1Cl` [Example 23, (Z)-7-[(1R,2S,3R,5R)-5-Chloro-2-(4-chloro-phenoxymethyl)-3-hydroxy-cyclopentyl]-hept-5-enoic acid]: 3220 nM, 32 nM, 45 nM, 10 nM and 2860 nM.
As to `Cc1cccc(C)c1OC[C@@H]1[C@@H](C/C=C\CCCC(=O)O)[C@H](Cl)C[C@H]1O` [Example 35, (Z)-7-[(1R,2S,3R,5R)-5-Chloro-2-(2,6-dimethyl-phenoxymethyl)-3-hydroxy-cyclopentyl]-hept-5-enoic acid], the Ki was above 10000 nM at hEP4 [1] and 4320 nM at hEP2 [3]. In addition, the EC50 at hEP2 [2] was 5580 nM; at hEP2 [4] it was 3350 nM; at hEP4 [5], above 10000 nM.
For `Cc1cc(OC[C@@H]2[C@@H](C/C=C\CCCC(=O)O)[C@H](Cl)C[C@H]2O)cc(C)c1C` [Example 38, (Z)-7-[(1R,2S,3R,5R)-5-Chloro-3-hydroxy-2-(3,4,5-trimethyl-phenoxymethyl)-cyclopentyl]-hept-5-enoic acid], the Ki on hEP4 [1] amounted to 606 nM; at hEP2 [3] it was 25 nM. Besides, the results for the EC50 at hEP2 [2], on hEP2 [4] and at hEP4 [5] were 2.3 nM, 1.5 nM and above 10000 nM, respectively.
As to `Cc1cccc(OC[C@@H]2[C@@H](C/C=C\CCCC(=O)O)[C@H](Cl)C[C@H]2O)c1` [Example 25, (Z)-7-((1R,2S,3R,5R)-5-Chloro-3-hydroxy-2-m-tolyloxymethyl-cyclopentyl)-hept-5-enoic acid], the Ki worked out at 1840 nM on hEP4 [1] and 155 nM on hEP2 [3]. In addition, the concentration for a half-maximal effect (EC50) on hEP2 [2] stood at 112 nM; at hEP2 [4] it was 9 nM; on hEP4 [5], 13000 nM.
The matching figures for `Cc1cccc(OC[C@@H]2[C@@H](C/C=C\CCCC(=O)O)[C@H](Cl)C[C@H]2O)c1C` [Example 32, (Z)-7-[(1R,2S,3R,5R)-5-Chloro-2-(2,3-dimethyl-phenoxymethyl)-3-hydroxy-cyclopentyl]-hept-5-enoic acid]: 1320 nM, 122 nM, 61 nM, 3 nM and above 10000 nM.
